Measurements published in ChEMBL document CHEMBL1177794, “Broad spectrum alkynyl inhibitors of T315I Bcr-Abl” (Bioorg Med Chem Lett, 2010).

Assays:
[1] = biological target: Serine/threonine-protein kinase ULK3 (Homo sapiens) (UniProt Q6PHR2); test: Inhibition of ULK3 at 10 uM; conditions: values are per cent of control
[2] = biological target: Transient receptor potential cation channel subfamily M member 6 (Homo sapiens) (UniProt Q9BX84); test: Inhibition of TRPM6 at 10 uM; conditions: values are per cent of control
[3] = biological target: Homeodomain-interacting protein kinase 4 (Homo sapiens) (UniProt Q8NE63); test: Inhibition of HIPK4 at 10 uM; conditions: values are per cent of control
[4] = biological target: Mitogen-activated protein kinase kinase kinase 3 (Homo sapiens) (UniProt Q99759); test: Inhibition of MAP3K3 at 10 uM; conditions: values are per cent of control
[5] = biological target: Tyrosine-protein kinase BTK (Homo sapiens) (UniProt Q06187); test: Inhibition of BTK at 10 uM; values are per cent of control
[6] = biological target: Serine/threonine-protein kinase 35 (Homo sapiens) (UniProt Q8TDR2); test: Inhibition of STK35 at 10 uM
[7] = biological target: Cyclin-dependent kinase-like 3 (Homo sapiens) (UniProt Q8IVW4); test: Inhibition of CDKL3 at 10 uM; conditions: values are per cent of control
Sequence of Cyclin-dependent kinase-like 3 (Homo sapiens) (Q8IVW4 whole entry, looked up): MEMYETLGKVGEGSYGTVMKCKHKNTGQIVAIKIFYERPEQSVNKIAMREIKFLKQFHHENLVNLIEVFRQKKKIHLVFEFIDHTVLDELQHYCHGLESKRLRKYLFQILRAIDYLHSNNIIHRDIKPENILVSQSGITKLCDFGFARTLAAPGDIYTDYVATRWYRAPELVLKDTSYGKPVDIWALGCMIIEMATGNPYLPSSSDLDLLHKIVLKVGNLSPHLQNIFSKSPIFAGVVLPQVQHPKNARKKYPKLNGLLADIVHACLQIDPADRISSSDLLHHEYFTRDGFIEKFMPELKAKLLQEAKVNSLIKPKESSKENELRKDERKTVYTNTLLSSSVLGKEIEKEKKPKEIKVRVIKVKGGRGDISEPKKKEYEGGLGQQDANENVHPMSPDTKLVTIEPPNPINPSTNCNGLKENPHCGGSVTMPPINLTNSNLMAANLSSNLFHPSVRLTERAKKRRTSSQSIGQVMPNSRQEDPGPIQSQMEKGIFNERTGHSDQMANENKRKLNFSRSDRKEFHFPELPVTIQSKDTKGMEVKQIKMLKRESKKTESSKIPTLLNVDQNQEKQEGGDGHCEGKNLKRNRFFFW

[8] = tested on: Leucine-rich repeat serine/threonine-protein kinase 2 (Homo sapiens), Q5S007 [G2019S]; test: Inhibition of LRRK2 G2019S mutant at 10 uM; conditions: values are per cent of control
[9] = biological target: Cyclin-dependent kinase 11B (Homo sapiens) (UniProt P21127); test: Inhibition of CDC2L1 at 10 uM; values are per cent of control
[10] = biological target: Death-associated protein kinase 1 (Homo sapiens) (UniProt P53355); test: Inhibition of DAPK1 at 10 uM; conditions: values are per cent of control
Sequence of Death-associated protein kinase 1 (Homo sapiens) (P53355 whole entry, looked up): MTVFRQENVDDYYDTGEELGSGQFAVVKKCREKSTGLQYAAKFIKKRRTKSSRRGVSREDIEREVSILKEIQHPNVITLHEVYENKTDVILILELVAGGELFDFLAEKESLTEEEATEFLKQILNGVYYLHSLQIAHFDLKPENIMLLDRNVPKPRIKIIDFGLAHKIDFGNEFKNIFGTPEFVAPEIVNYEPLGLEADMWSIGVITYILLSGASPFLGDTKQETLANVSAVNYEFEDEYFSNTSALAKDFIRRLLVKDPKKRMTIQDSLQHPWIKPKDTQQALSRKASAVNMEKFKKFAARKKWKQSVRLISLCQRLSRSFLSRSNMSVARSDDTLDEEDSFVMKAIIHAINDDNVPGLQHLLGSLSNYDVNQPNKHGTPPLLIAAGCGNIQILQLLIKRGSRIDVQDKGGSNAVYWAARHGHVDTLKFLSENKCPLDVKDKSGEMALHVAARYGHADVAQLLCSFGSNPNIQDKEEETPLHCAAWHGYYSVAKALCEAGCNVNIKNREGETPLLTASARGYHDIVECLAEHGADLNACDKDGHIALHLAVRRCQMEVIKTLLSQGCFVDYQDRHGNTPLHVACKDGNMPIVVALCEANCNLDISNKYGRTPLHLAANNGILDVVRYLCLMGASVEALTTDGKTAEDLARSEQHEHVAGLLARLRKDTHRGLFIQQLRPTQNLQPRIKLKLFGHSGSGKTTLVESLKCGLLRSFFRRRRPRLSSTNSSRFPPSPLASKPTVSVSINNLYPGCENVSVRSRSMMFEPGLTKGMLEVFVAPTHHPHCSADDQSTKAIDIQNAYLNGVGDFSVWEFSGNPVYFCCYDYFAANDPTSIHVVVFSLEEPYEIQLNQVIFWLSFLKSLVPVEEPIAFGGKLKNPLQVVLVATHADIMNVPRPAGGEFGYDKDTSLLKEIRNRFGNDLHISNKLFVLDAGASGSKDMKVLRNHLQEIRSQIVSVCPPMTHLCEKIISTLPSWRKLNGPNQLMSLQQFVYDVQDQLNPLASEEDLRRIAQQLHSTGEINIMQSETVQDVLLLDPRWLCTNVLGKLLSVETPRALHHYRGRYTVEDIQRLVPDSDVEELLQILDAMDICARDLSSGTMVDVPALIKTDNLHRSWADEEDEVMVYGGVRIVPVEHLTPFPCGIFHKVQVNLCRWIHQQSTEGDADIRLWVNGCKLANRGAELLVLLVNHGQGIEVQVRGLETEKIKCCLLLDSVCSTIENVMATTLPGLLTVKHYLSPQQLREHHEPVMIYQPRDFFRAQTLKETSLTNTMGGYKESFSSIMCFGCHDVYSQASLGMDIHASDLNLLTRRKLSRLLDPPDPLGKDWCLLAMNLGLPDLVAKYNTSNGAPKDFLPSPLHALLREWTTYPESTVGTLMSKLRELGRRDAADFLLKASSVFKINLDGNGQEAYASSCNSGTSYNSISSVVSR

[11] = biological target: Tyrosine-protein kinase Yes (Homo sapiens) (UniProt P07947); test: Inhibition of YES at 10 uM; conditions: values are per cent of control
Sequence of Tyrosine-protein kinase Yes (Homo sapiens) (P07947 2-543 limits assumed): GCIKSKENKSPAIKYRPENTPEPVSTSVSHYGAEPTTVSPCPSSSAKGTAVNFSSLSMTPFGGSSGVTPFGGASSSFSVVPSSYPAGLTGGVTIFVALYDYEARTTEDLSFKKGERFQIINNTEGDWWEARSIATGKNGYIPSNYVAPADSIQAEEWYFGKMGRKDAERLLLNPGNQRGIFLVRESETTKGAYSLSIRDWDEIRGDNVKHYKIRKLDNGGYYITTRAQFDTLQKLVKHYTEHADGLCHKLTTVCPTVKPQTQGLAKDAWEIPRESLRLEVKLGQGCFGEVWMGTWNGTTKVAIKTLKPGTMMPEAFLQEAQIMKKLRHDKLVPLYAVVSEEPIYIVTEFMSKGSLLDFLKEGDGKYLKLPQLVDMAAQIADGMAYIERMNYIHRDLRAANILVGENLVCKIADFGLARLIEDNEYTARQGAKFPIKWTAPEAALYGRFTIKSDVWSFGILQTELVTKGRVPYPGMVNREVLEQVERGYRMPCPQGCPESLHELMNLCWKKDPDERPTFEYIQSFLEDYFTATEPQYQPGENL

[12] = tested on: Phosphatidylinositol 4,5-bisphosphate 3-kinase catalytic subunit alpha isoform (Homo sapiens), P42336 [E542K]; test: Inhibition of PIK3CA E542K mutant at 10 uM
[13] = biological target: Phosphatidylinositol 4,5-bisphosphate 3-kinase catalytic subunit alpha isoform (Homo sapiens) (UniProt P42336); test: Inhibition of PIK3CA at 10 uM; values are per cent of control
[14] = biological target: Leucine-rich repeat serine/threonine-protein kinase 2 (Homo sapiens) (UniProt Q5S007); test: Inhibition of LRRK2 at 10 uM; conditions: values are per cent of control
[15] = biological target: Serine/threonine-protein kinase NIM1 (Homo sapiens) (UniProt Q8IY84); test: Inhibition of NIM1 at 10 uM
[16] = biological target: Testis-specific serine/threonine-protein kinase 1 (Homo sapiens) (UniProt Q9BXA7); test: Inhibition of TSSK1B at 10 uM; conditions: values are per cent of control
[17] = biological target: Inhibitor of nuclear factor kappa-B kinase subunit alpha (Homo sapiens) (UniProt O15111); test: Inhibition of IKK-alpha at 10 uM; conditions: values are per cent of control
Sequence of Inhibitor of nuclear factor kappa-B kinase subunit alpha (Homo sapiens) (O15111 whole entry): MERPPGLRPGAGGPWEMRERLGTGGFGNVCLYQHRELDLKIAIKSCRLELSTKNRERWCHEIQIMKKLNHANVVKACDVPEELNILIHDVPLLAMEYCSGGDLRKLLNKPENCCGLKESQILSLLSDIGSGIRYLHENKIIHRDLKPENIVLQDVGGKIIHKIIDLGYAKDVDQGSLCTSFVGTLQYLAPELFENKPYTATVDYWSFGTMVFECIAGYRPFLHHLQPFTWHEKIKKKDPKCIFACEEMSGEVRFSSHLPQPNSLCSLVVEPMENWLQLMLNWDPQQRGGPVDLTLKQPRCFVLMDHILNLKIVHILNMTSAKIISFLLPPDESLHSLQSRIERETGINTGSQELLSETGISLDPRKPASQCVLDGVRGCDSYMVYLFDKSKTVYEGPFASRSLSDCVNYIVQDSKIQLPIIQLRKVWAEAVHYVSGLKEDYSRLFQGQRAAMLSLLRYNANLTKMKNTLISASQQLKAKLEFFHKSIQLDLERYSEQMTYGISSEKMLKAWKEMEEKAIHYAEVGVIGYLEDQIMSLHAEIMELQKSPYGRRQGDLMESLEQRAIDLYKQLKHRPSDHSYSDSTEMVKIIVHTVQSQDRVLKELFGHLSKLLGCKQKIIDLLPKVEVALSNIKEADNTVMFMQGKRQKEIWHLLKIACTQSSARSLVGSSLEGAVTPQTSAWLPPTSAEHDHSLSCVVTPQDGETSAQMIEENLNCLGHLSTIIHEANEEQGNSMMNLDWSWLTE

[18] = biological target: Atypical kinase COQ8B, mitochondrial (Homo sapiens) (UniProt Q96D53); test: Inhibition of ADCK4 at 10 uM; conditions: values are per cent of control
[19] = biological target: Calcium-dependent protein kinase 1 (Plasmodium falciparum) (UniProt P62344); test: Inhibition of Plasmodium falciparum PFCDPK1 at 10 uM; conditions: values are per cent of control
[20] = biological target: Bone morphogenetic protein receptor type-1B (Homo sapiens) (UniProt O00238); test: Inhibition of BMPR1B at 10 uM; conditions: values are per cent of control
[21] = biological target: Homeodomain-interacting protein kinase 1 (Homo sapiens) (UniProt Q86Z02); test: Inhibition of HIPK1 at 10 uM; conditions: values are per cent of control
[22] = biological target: Cyclin-dependent kinase 13 (Homo sapiens) (UniProt Q14004); test: Inhibition of CDC2L5 at 10 uM; values are per cent of control
[23] = biological target: Tyrosine-protein kinase Lyn (Homo sapiens) (UniProt P07948); test: Inhibition of LYN at 10 uM; values are per cent of control
[24] = biological target: Bone morphogenetic protein receptor type-1A (Homo sapiens) (UniProt P36894); test: Inhibition of BMPR1A at 10 uM; conditions: values are per cent of control
[25] = biological target: Mitogen-activated protein kinase 10 (Homo sapiens) (UniProt P53779); test: Inhibition of JNK3 at 10 uM; values are per cent of control
[26] = biological target: Ribosomal protein S6 kinase alpha-5 (Homo sapiens) (UniProt O75582); test: Inhibition of RPS6KA5 N-terminal domain1 at 10 uM
[27] = biological target: Serine/threonine-protein kinase DCLK1 (Homo sapiens) (UniProt O15075); test: Inhibition of DCAMKL1 at 10 uM; values are per cent of control
[28] = biological target: Tyrosine-protein kinase FRK (Homo sapiens) (UniProt P42685); test: Inhibition of FRK at 10 uM; conditions: values are per cent of control
[29] = biological target: SRSF protein kinase 3 (Homo sapiens) (UniProt Q9UPE1); test: Inhibition of SRPK3 at 10 uM
[30] = biological target: Proto-oncogene tyrosine-protein kinase receptor Ret (Homo sapiens) (UniProt P07949); test: Inhibition of RET at 10 uM; values are per cent of control
[31] = biological target: Activated CDC42 kinase 1 (Homo sapiens) (UniProt Q07912); test: Inhibition of TNK2 at 10 uM; conditions: values are per cent of control
[32] = biological target: Serine/threonine-protein kinase D3 (Homo sapiens) (UniProt O94806); test: Inhibition of PRKD3 at 10 uM
[33] = biological target: Serine/threonine-protein kinase SIK2 (Homo sapiens) (UniProt Q9H0K1); test: Inhibition of SIK2 at 10 uM
[34] = biological target: Casein kinase I isoform epsilon (Homo sapiens) (UniProt P49674); test: Inhibition of CSNK1E at 10 uM; values are per cent of control
Sequence of Casein kinase I isoform epsilon (Homo sapiens) (P49674 whole entry, looked up, canonical isoform): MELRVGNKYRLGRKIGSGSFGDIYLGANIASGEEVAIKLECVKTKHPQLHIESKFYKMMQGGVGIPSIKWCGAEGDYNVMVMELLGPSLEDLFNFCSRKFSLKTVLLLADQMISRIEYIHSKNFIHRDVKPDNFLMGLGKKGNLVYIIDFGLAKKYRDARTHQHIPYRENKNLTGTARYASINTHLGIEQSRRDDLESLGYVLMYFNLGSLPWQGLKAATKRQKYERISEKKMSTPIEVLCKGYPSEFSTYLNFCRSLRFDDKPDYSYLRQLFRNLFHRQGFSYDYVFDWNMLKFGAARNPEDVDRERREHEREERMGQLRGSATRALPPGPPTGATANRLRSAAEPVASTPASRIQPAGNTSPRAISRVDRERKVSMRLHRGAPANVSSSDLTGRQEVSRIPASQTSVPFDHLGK

[35] = biological target: Serine/threonine-protein kinase 32C (Homo sapiens) (UniProt Q86UX6); test: Inhibition of YANK3 at 10 uM; conditions: values are per cent of control
[36] = biological target: Tyrosine-protein kinase JAK3 (Homo sapiens) (UniProt P52333); test: Inhibition of JAK3 JH1 catalytic domain at 10 uM; values are per cent of control
[37] = biological target: Dual specificity protein kinase TTK (Homo sapiens) (UniProt P33981); test: Inhibition of TTK at 10 uM; conditions: values are per cent of control
Sequence of Dual specificity protein kinase TTK (Homo sapiens) (P33981 whole entry): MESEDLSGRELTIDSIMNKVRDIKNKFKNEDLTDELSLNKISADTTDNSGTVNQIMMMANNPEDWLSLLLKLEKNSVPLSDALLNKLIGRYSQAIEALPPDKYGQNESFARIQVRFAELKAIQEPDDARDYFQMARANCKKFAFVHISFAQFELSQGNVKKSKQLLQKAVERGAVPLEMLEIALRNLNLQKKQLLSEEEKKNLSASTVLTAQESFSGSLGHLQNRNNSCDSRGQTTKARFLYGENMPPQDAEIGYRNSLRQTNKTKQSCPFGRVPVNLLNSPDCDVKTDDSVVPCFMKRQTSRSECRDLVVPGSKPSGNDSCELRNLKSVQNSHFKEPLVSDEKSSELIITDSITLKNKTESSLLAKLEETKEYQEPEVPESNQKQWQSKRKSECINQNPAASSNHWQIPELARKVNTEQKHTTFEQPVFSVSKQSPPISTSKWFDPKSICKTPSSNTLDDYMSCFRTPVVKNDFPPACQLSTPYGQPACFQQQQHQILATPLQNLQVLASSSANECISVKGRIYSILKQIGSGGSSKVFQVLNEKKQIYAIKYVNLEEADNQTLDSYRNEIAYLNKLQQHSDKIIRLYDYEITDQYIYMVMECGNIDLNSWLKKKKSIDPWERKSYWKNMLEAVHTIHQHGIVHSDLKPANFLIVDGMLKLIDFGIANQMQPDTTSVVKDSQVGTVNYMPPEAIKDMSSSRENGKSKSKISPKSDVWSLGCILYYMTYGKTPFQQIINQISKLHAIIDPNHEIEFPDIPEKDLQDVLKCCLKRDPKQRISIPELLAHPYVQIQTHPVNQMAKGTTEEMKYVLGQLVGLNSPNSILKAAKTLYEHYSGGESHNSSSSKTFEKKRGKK

[38] = biological target: Dual specificity protein kinase CLK1 (Homo sapiens) (UniProt P49759); test: Inhibition of CLK1 at 10 uM; conditions: values are per cent of control
Sequence of Dual specificity protein kinase CLK1 (Homo sapiens) (P49759 whole entry, looked up): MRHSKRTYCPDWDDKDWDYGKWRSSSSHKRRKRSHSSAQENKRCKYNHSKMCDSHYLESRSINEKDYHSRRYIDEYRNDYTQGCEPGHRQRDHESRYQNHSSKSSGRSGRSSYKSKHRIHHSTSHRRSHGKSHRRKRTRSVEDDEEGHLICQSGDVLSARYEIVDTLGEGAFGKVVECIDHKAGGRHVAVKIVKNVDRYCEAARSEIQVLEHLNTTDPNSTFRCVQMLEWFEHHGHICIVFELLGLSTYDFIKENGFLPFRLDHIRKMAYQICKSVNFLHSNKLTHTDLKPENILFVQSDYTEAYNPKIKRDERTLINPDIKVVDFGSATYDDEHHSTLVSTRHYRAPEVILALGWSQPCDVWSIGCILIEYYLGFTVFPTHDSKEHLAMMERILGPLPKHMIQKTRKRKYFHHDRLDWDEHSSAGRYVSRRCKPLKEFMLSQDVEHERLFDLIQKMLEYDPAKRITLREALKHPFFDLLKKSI

[39] = biological target: Serine/threonine-protein kinase 16 (Homo sapiens) (UniProt O75716); test: Inhibition of STK16 at 10 uM
[40] = tested on: Proto-oncogene tyrosine-protein kinase receptor Ret (Homo sapiens), P07949 [V804L]; test: Inhibition of RET V804L mutant at 10 uM; values are per cent of control
[41] = biological target: Rhodopsin kinase GRK1 (Homo sapiens) (UniProt Q15835); test: Inhibition of GRK1 at 10 uM; conditions: values are per cent of control

CCN1CCN(Cc2ccc(NC(=O)c3ccc(C)c(C#Cc4cnc5[nH]ccc5c4)c3)cc2C(F)(F)F)CC1
residual binding, % of control [1]: 0.25%
residual binding, % of control [2]: 64%
residual binding, % of control [3]: 1.9%
residual binding, % of control [4]: 1.4%
level, % of control [5]: 1.2%
inhibition [6]: 0.8%
residual binding, % of control [7]: 1.9%
residual binding, % of control [8]: 8.8%
level, % of control [9]: 0%
residual binding, % of control [10]: 94%
residual binding, % of control [11]: 0.25%
inhibition [12]: 96%
level, % of control [13]: 93%
residual binding, % of control [14]: 6.2%
inhibition [15]: 98%
residual binding, % of control [16]: 98%
residual binding, % of control [17]: 0.45%
residual binding, % of control [18]: 82%
residual binding, % of control [19]: 0.2%
residual binding, % of control [20]: 72%
residual binding, % of control [21]: 48%
level, % of control [22]: 13%
level, % of control [23]: 0.05%
residual binding, % of control [24]: 53%
level, % of control [25]: 1.8%
inhibition [26]: 20%
level, % of control [27]: 100%
residual binding, % of control [28]: 0.15%
inhibition [29]: 11%
level, % of control [30]: 0%
residual binding, % of control [31]: 0.6%
inhibition [32]: 6.4%
inhibition [33]: 18%
level, % of control [34]: 26%
residual binding, % of control [35]: 83%
level, % of control [36]: 3.5%
residual binding, % of control [37]: 2%
residual binding, % of control [38]: 6.8%
inhibition [39]: 47%
level, % of control [40]: 0%
residual binding, % of control [41]: 88%

CCN1CCN(Cc2ccc(NC(=O)c3ccc(C)c(C#Cc4cccnc4)c3)cc2C(F)(F)F)CC1
residual binding, % of control [1]: 0.25%
residual binding, % of control [2]: 49%
residual binding, % of control [3]: 2.2%
residual binding, % of control [4]: 1.4%
level, % of control [5]: 2%
inhibition [6]: 1.6%
residual binding, % of control [7]: 0.65%
residual binding, % of control [8]: 7.5%
level, % of control [9]: 2.5%
residual binding, % of control [10]: 100%
residual binding, % of control [11]: 0.1%
inhibition [12]: 100%
level, % of control [13]: 100%
residual binding, % of control [14]: 3.4%
inhibition [15]: 97%
residual binding, % of control [16]: 92%
residual binding, % of control [17]: 0%
residual binding, % of control [18]: 85%
residual binding, % of control [19]: 0.05%
residual binding, % of control [20]: 78%
residual binding, % of control [21]: 37%
level, % of control [22]: 6.5%
level, % of control [23]: 0.05%
residual binding, % of control [24]: 81%
level, % of control [25]: 0.95%
inhibition [26]: 59%
level, % of control [27]: 95%
residual binding, % of control [28]: 0.15%
inhibition [29]: 45%
level, % of control [30]: 0%
residual binding, % of control [31]: 11%
inhibition [32]: 22%
inhibition [33]: 21%
level, % of control [34]: 48%
residual binding, % of control [35]: 75%
level, % of control [36]: 2.3%
residual binding, % of control [37]: 16%
residual binding, % of control [38]: 3.9%
inhibition [39]: 100%
level, % of control [40]: 0%
residual binding, % of control [41]: 100%
